In general, Ki refers to a dissociation constant, usually derived from enzyme kinetics or from competition with a known ligand.

Molecules are shown by their SMILES.

This note sets out measurements from patent US20250188030A1, “Biphenyl and Phenylpyridine Compounds” (Pfizer Inc., priority 2023, published 2025).

KAT2A, sequence (Q92830 whole entry): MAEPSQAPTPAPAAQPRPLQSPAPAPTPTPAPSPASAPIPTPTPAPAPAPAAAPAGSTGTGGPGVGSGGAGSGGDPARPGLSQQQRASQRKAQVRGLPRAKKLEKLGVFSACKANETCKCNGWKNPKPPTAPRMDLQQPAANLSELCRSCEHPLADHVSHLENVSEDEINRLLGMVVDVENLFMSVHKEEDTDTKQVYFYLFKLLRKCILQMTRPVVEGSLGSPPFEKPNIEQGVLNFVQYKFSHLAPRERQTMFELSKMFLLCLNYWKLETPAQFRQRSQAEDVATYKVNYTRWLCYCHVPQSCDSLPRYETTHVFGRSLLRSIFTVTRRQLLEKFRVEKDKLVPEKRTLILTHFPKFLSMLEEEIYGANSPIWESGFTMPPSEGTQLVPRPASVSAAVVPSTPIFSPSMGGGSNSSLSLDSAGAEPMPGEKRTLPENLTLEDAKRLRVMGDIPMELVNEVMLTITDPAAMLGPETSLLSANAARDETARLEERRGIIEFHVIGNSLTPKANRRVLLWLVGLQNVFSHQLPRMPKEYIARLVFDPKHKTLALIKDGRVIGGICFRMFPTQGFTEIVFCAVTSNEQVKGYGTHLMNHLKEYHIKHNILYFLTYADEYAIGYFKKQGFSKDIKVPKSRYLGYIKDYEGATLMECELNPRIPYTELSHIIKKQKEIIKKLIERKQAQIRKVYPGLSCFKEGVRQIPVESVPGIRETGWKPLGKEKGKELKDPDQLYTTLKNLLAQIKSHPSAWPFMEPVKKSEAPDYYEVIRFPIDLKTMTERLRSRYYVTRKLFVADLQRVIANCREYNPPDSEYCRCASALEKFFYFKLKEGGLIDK

The first assay has as its target KAT2A (Homo sapiens (Human), UniProt Q92830). Put plainly: KAT2A acetyltransferase biochemical assay (RapidFire mass spectrometry, AcCoA to CoA). To be noted: KAT2A Ki at 1 μM AcCoA, 5 μM H3 1-21 peptide, 0.5 nM KAT2A, 90-minute reaction.
Method: • A) Compound preparation • 1) Prepare 10 mM stock solutions in 100% DMSO from solid material. • 2) Serial dilute 10 mM, 1 mM, 0.1 or 0.01 mM compound stocks 3-fold in 100% DMSO for 11-point dose response. • B) Reagent preparation • 1) Prepare 1×assay buffer containing 40 mM bis tris propane pH 8.0, 10 mM NaCl, 0.5 mM EDTA, and 0.002% Tween-20. • 2) Dilute Histone peptide (CPC Scientific) and KAT enzyme together in assay buffer to 1.25×. • 3) Dilute AcCoA (Sigma) in assay buffer to 5×. • C) Enzyme reaction • 1) Final reaction conditions for each KAT assay in a 100ul assay reaction volume: • i) KAT2A 0.5 nM, 1 uM AcCoA, 5 uM H3 1-21 peptide, 90-minute reaction • ii) KAT2B 0.5 nM, 1 uM AcCoA, 5 uM H3 1-21 peptide, 90-minute reaction • 2) Add 2 ul of diluted compound series to the assay plate (96-well round-bottom polypropylene plates) or 2 ul of DMSO for control wells. • 3) Add 11 μL of 10% formic acid to 100% effect (HPE) control wells. • 4) Add 80 ul of 1.25× Histone peptide/KAT mix to the assay plate via Multidrop Combi (ThermoFisher). Incubate 15 min at room temperature. • 5) Add 20 ul of 5× AcCoA to the assay plate via Multidrop Combi. • 6) Stop the reaction after the indicated time with the addition of 11 ul of 10% formic acid via Multidrop Combi. • 7) Each reaction was analyzed using Rapid Fire mass spectrometry platform.
KAT enzymes were expressed using a baculovirus expression system and purified at Pfizer, La Jolla. […] Acetyl coenzyme A was purchased from Sigma-Aldrich (St. Louis, MO). All other biochemical reagents were purchased from Sigma-Aldrich or ThermoFisher Scientific (Waltham, MA).
KAT assays were performed at room temperature in assay buffer containing 1 μM AcCoA, 5 μM histone peptide, 40 mM bis tris propane pH 8.0, 10 mM NaCl, 0.5 mM EDTA 0.002% Tween-20. 80 ul of 1.25× Histone peptide/enzyme mix was added to a 96-well round-bottom polypropylene assay plate containing 2 ul of serially diluted test compound in 100% dimethyl sulfoxide (DMSO). To start the reaction, 20 ul of 5× AcCoA solution was added to the assay plate. KAT assays were terminated after 90 minutes with the addition of 11 ul of 10% formic acid. All assays used histone H3 (1-21) peptide. The final enzyme concentration for each KAT was as follows: KAT2A, 0.5 nM; KAT2B, 0.5 nM. […] Each reaction was analyzed using Rapid Fire mass spectrometry platform. This methodology leverages an Agilent 6495 triple quadrupole (QQQ) mass spectrometer coupled to a RapidFire model 365 to specifically capture and measure KAT2 acetyltransferase activity, converting AcCoA (substrate) to CoA (product).
Area under the curve (AUC) for both substrate and product peaks was determined for KAT2 at M.W. 809.6 [Substrate+H]+ and 767.3 [Product+H]+ with a +/−1 Da tolerance, respectively. Acetyltransferase activity (% of DMSO control) was calculated by: ((AUCProduct/AUCsubstrate)-AUCHPE)/(AUCZPE-AUCHPE))*100. Ki values were determined by fitting the % acetyltransferase activity at each inhibitor concentration to the Morrison equation for tightbinding competitive inhibitors using Pfizer proprietary curve fitting software.
To determine the inhibition of KAT enzymatic activity by test compounds, assay reactions were conducted in a volume of 100 μL in 96-well round-bottom polypropylene assay plate. The reactions were performed in assay buffer (40 mM bis tris propane, pH 8, 10 mM NaCl, 0.5 mM EDTA, 0.002% Tween-20).
For the molecule `CC(C)S(=O)(=O)NC(=O)C(C)(C)c1ccc(O[C@@H]2CC[C@@H](NC(=O)[C@@]3(F)CNC4(CCC4)C3)C2)c(-c2cccc(F)c2C2CCC2)c1` (single isomer, unassigned) [Example B3], the Ki was found to be 236 nM.

The molecule `CS(=O)(=O)NC(=O)Cc1ccc(O[C@@H]2CC[C@@H](NC(=O)C3(F)CNC4(CCCC4)C3)C2)c(-c2cccc(F)c2C2CCC2)c1` (single isomer, unassigned) [Example B15] came in with a Ki of 660 nM.

With `CS(=O)(=O)NC(=O)Cc1ccc(O[C@@H]2CC[C@@H](NC(=O)[C@]3(F)CNC4(CCC4)C3)C2)c(-c2cccc(F)c2C2CCC2)c1` (single isomer, unassigned) [Example C39], the affinity, expressed as Ki, was 20.4 nM.

The same assay, now with this note: read-out: KAT2A Ki at 1 μM AcCoA, 5 μM H3 1-21 peptide, 0.5 nM KAT2A, 90-minute reaction.
Take `CC(C)c1ccccc1-c1c(CC(=O)O)cccc1O[C@@H]1CC[C@@H](NC(=O)[C@@H]2CC(C)(C)CN2C)C1` (atropisomer, axis not shown) [Example H5, [(1ψ)-2′-(propan-2-yl)-6-({(1R,3R)-3-[(1,4,4-trimethyl-L-prolyl)amino]cyclopentyl}oxy)[1,1′-biphenyl]-2-yl]acetic acid]: the Ki was 9040 nM.

As for `CC1(C)C[C@@H](C(=O)N[C@@H]2CC[C@@H](Oc3cccc(C(=O)O)c3-c3cccc(F)c3C3CCC3)C2)CN1` (atropisomer, axis not shown) [Example H8, (1ψ)-2′-cyclobutyl-6-{[(1R,3R)-3-{[(3ξ)-5,5-dimethylpyrrolidine-3-carbonyl]amino}cyclopentyl]oxy}-3′-fluoro[1,1′-biphenyl]-2-carboxylic acid], the Ki turned out to be 348 nM.

Consider `CC1(C)C[C@@H](C(=O)N[C@@H]2CC[C@@H](Oc3cccc(C(=O)O)c3-c3cccc(F)c3C3CCC3)C2)CN1` (atropisomer, axis not shown) [Example H10], for which the Ki was 26400 nM.

In the case of `CC1(C)C[C@H](C(=O)N[C@@H]2CC[C@@H](Oc3cccc(C(=O)O)c3-c3cccc(F)c3C3CCC3)C2)CN1` (atropisomer, axis not shown) [Example H11, (1ψ)-2′-cyclobutyl-6-{[(1R,3R)-3-{[(3ξ)-5,5-dimethylpyrrolidine-3-carbonyl]amino}cyclopentyl]oxy}-3′-fluoro[1,1′-biphenyl]-2-carboxylic acid], the Ki stood at 1100 nM.

`CN1CC(C)(C)C[C@H]1C(=O)N[C@@H]1CC[C@@H](Oc2cccc(C(=O)NS(C)(=O)=O)c2-c2cccc(F)c2C2CCC2)C1` (atropisomer, axis not shown) [Example I2, N-[(1R,3R)-3-({(1ψ)-2′-cyclobutyl-3′-fluoro-6-[(methanesulfonyl)carbamoyl][1,1′-biphenyl]-2-yl}oxy)cyclopentyl]-1,4,4-trimethyl-L-prolinamide]: the Ki is 1970 nM.

Turning to `CN1CC(C)(C)C[C@H]1C(=O)N[C@@H]1CC[C@@H](Oc2cccc(CC(=O)NS(N)(=O)=O)c2-c2ccccc2C2CCC2)C1` (atropisomer, axis not shown) [Example I6, N-[(1R,3R)-3-({(1ψ)-2′-cyclobutyl-6-[2-oxo-2-(sulfamoylamino)ethyl][1,1′-biphenyl]-2-yl}oxy)cyclopentyl]-1,4,4-trimethyl-L-prolinamide], the Ki is 387 nM.

Consider `CN1CC2(CCCC2)C[C@@H]1C(=O)N[C@@H]1CC[C@@H](Oc2cccc(C(=O)NS(C)(=O)=O)c2-c2cccc(F)c2C2CCC2)C1` (atropisomer, axis not shown) [Example I8, (3ξ)-N-[(1R,3R)-3-({(1ψ)-2′-cyclobutyl-3′-fluoro-6-[(methanesulfonyl)carbamoyl][1,1′-biphenyl]-2-yl}oxy)cyclopentyl]-2-methyl-2-azaspiro[4.4]nonane-3-carboxamide], for which the Ki came out at 1360 nM.

Consider `CN1CC2(CCCC2)C[C@H]1C(=O)N[C@@H]1CC[C@@H](Oc2cccc(C(=O)NS(C)(=O)=O)c2-c2cccc(F)c2C2CCC2)C1` (atropisomer, axis not shown) [Example I9, (3ξ)-N-[(1R,3R)-3-({(1ψ)-2′-cyclobutyl-3′-fluoro-6-[(methanesulfonyl)carbamoyl][1,1′-biphenyl]-2-yl}oxy)cyclopentyl]-2-methyl-2-azaspiro[4.4]nonane-3-carboxamide], for which the Ki is 411 nM.

Turning to `O=C(O)Cc1ccc(O[C@@H]2CC[C@@H](NC(=O)[C@]3(F)CNC4(CCC4)C3)C2)c(-c2cccc(F)c2C2CCC2)c1` (single isomer, unassigned) [Example A8], the Ki is above 400 nM.

`C[C@H](C(=O)O)c1ccc(O[C@@H]2CC[C@@H](NC(=O)[C@@]3(F)CNC4(CCC4)C3)C2)c(-c2cccc(F)c2C2CCC2)c1` (single isomer, unassigned) [Example A17]: the Ki was above 1000 nM.

For the molecule `C[C@H](C(=O)O)c1ccc(O[C@@H]2CC[C@@H](NC(=O)[C@@]3(F)CNC4(CCC4)C3)C2)c(-c2cccc(F)c2C2CCC2)c1` (single isomer, unassigned) [Example A18], the Ki worked out at 751 nM.

In the case of `CC1(C)CNC[C@](F)(C(=O)N[C@@H]2CC[C@@H](Oc3ccc(CC(=O)O)cc3-c3cccc(F)c3C3CCC3)C2)C1` (single isomer, unassigned) [Example A24], the Ki was determined as 15.4 nM.

On to `CC(C)(C(=O)NS(=O)(=O)N1CC(F)(F)C1)c1ccc(O[C@@H]2CC[C@@H](NC(=O)[C@]3(F)CNC4(CCC4)C3)C2)c(-c2cccc(F)c2C2CCC2)c1` (single isomer, unassigned) [Example B9], for which the Ki was 209 nM.

In the case of `CC(C)(C(=O)NS(=O)(=O)C1CC1)c1ccc(O[C@@H]2CC[C@@H](NC(=O)[C@]3(F)CNC4(CCC4)C3)C2)c(-c2cccc(F)c2C2CCC2)c1` (single isomer, unassigned) [Example B11], the Ki turned out to be 517 nM.

For the molecule `CCS(=O)(=O)NC(=O)C(C)(C)c1ccc(O[C@@H]2CC[C@@H](NC(=O)[C@@]3(F)CNC4(CCCC4)C3)C2)c(-c2cccc(F)c2C2CCC2)c1` (single isomer, unassigned) [Example B19], the Ki amounted to 34.7 nM.

For `CCS(=O)(=O)NC(=O)C(C)(C)c1ccc(O[C@@H]2CC[C@@H](NC(=O)[C@@]3(F)CNCC(C)(C)C3)C2)c(-c2cccc(F)c2C2CCC2)c1` (single isomer, unassigned) [Example B21], the Ki came to 81.7 nM.

In the case of `CC(C)S(=O)(=O)NC(=O)C(C)(C)c1ccc(O[C@@H]2CC[C@@H](NC(=O)[C@@]3(F)CNC4(CCCC4)C3)C2)c(-c2cccc(F)c2C2CCC2)c1` (single isomer, unassigned) [Example B23], the Ki was above 1000 nM.

Take `CC(C)(C(=O)NS(=O)(=O)C1CC1)c1ccc(O[C@@H]2CC[C@@H](NC(=O)[C@@]3(F)CNC4(CCCC4)C3)C2)c(-c2cccc(F)c2C2CCC2)c1` (single isomer, unassigned) [Example B25]: the Ki was 72.8 nM.

For `CC1(C)CNC[C@](F)(C(=O)N[C@@H]2CC[C@@H](Oc3ccc(C(C)(C)C(=O)NS(=O)(=O)C4CC4)cc3-c3cccc(F)c3C3CCC3)C2)C1` (single isomer, unassigned) [Example B27], the inhibition constant (Ki) came to 103 nM.

Take `CC(C)S(=O)(=O)NC(=O)C(C)(C)c1ccc(O[C@@H]2CC[C@@H](NC(=O)[C@@]3(F)CNCC(C)(C)C3)C2)c(-c2cccc(F)c2C2CCC2)c1` (single isomer, unassigned) [Example B29]: the Ki was determined as 221 nM.

Regarding `CC(C)(C(=O)NS(=O)(=O)C1(C)CC1)c1ccc(O[C@@H]2CC[C@@H](NC(=O)[C@@]3(F)CNC4(CCC4)C3)C2)c(-c2cccc(F)c2C2CCC2)c1` (single isomer, unassigned) [Example B33], the inhibitory constant (Ki) stood at 27.6 nM.

As for `CCc1c(F)cccc1-c1cc(C(C)(C)C(=O)NS(C)(=O)=O)ccc1O[C@@H]1CC[C@@H](NC(=O)[C@@]2(F)CNC3(CCCC3)C2)C1` (single isomer, unassigned) [Example C26], the Ki stood at 338 nM.

For `CCc1c(F)cccc1-c1cc(C(C)(C)C(=O)NS(=O)(=O)C(C)C)ccc1O[C@@H]1CC[C@@H](NC(=O)[C@@]2(F)CNC3(CCCC3)C2)C1` (single isomer, unassigned) [Example C28], the Ki came out at 302 nM.

In the case of `O=C(Cc1ccc(O[C@@H]2CC[C@@H](NC(=O)[C@@]3(F)CNC4(CCC4)C3)C2)c(-c2cccc(F)c2C2CCC2)c1)NS(=O)(=O)C1CC1` (single isomer, unassigned) [Example C30], the Ki worked out at 238 nM.

As to `CC1(C)CNC[C@](F)(C(=O)N[C@@H]2CC[C@@H](Oc3ccc(C(C)(C)C(=O)NS(=O)(=O)C4(C)CC4)cc3-c3cccc(F)c3C3CCC3)C2)C1` (single isomer, unassigned) [Example C34], the inhibition constant Ki was found to be 321 nM.

Turning to `CC1(C)CNC[C@](F)(C(=O)N[C@@H]2CC[C@@H](Oc3ccc(C(C)(C)C(=O)NS(C)(=O)=O)cc3-c3cccc(F)c3C3CCC3)C2)C1` (single isomer, unassigned) [Example C36], the Ki is 118 nM.

Regarding `CC(C)c1c(F)cccc1-c1cc(C(C)(C)C(=O)NS(=O)(=O)C2(C)CC2)ccc1O[C@@H]1CC[C@@H](NC(=O)[C@@]2(F)CNC3(CCC3)C2)C1` (single isomer, unassigned) [Example C42], the Ki was above 99.9 nM.

Regarding `CC(C)S(=O)(=O)NC(=O)C(C)(C)c1ccc(O[C@@H]2CC[C@@H](NC(=O)[C@]3(F)CNC4(CCC4)C3)C2)c(-c2ccccc2C2CCC2)c1` (single isomer, unassigned) [Example C49], the inhibition constant Ki was above 99.9 nM.

Turning to `CC(C)c1ccccc1-c1cc(CC(=O)NS(=O)(=O)C2(C)CC2)ccc1O[C@@H]1CC[C@@H](NC(=O)[C@@]2(F)CNC3(CCCC3)C2)C1` (single isomer, unassigned) [Example C62], the Ki is above 99.9 nM.

As to `CCS(=O)(=O)NC(=O)Cc1ccc(O[C@@H]2CC[C@@H](NC(=O)[C@@]3(F)CNC4(CCCC4)C3)C2)c(-c2ccccc2C(C)C)c1` (single isomer, unassigned) [Example C64], the Ki is above 99.9 nM.

Regarding `CCc1c(F)cccc1-c1cc(CC(=O)NS(=O)(=O)C(C)C)ccc1O[C@@H]1CC[C@@H](NC(=O)[C@@]2(F)CNCC(C)(C)C2)C1` (single isomer, unassigned) [Example C66], the Ki is 11.8 nM.

Take `CC1(S(=O)(=O)NC(=O)Cc2ccc(O[C@@H]3CC[C@@H](NC(=O)[C@@]4(F)CNC5(CCCC5)C4)C3)c(-c3cccc(F)c3C3CCC3)c2)CC1` (single isomer, unassigned) [Example C68]: the inhibition constant (Ki) was determined as 13.2 nM.
